Measured values from PubChem BioAssay (NCI).
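48-hour exposure; five concentrations; linearly interpolated endpoints. Abbreviation: GI50, concentration required for 50% inhibition of growth. TGI: concentration producing complete growth inhibition.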

Columns and labels:
Test in all cases: inhibition of tumour cell growth, NCI panel, 48 h
HCT-116 colon = tested on: HCT-116 colon
786-0 renal = tested on: 786-0 renal
U251 CNS = tested on: U251 CNS
OVCAR-3 ovarian = tested on: OVCAR-3 ovarian
OVCAR-4 ovarian = tested on: OVCAR-4 ovarian
SNB-19 CNS = tested on: SNB-19 CNS
OVCAR-8 ovarian = tested on: OVCAR-8 ovarian
OVCAR-5 ovarian = tested on: OVCAR-5 ovarian
A549 NSCLC = tested on: A549 NSCLC
HL-60(TB) leukemia = tested on: HL-60(TB) leukemia
NCI-H226 lung = tested on: NCI-H226 lung
UACC-62 melanoma = tested on: UACC-62 melanoma
KM12 colon = tested on: KM12 colon
IGROV1 ovarian = tested on: IGROV1 ovarian
COLO 205 colon = tested on: COLO 205 colon
MOLT-4 leukemia = tested on: MOLT-4 leukemia
A498 renal = tested on: A498 renal
SK-OV-3 ovarian = tested on: SK-OV-3 ovarian
UACC-257 melanoma = tested on: UACC-257 melanoma
CAKI-1 renal = tested on: CAKI-1 renal
NCI-H522 lung = tested on: NCI-H522 lung
LOX IMVI melanoma = tested on: LOX IMVI melanoma
T-47D breast = tested on: T-47D breast
K-562 leukemia = tested on: K-562 leukemia
CCRF-CEM leukemia = tested on: CCRF-CEM leukemia
DU-145 prostate = tested on: DU-145 prostate

O=C1C(Cl)=C(Nc2cccc(O)c2)C(=O)N1Cc1ccc(Cl)cc1
GI50 (HCT-116 colon): 3.66 µM | TGI (HCT-116 colon): 25 µM | GI50 (786-0 renal): 1.63 µM | TGI (786-0 renal): 28.1 µM | GI50 (U251 CNS): 1.86 µM | TGI (U251 CNS): 26.9 µM | GI50 (OVCAR-3 ovarian): 1.43 µM | TGI (OVCAR-3 ovarian): 5.86 µM | GI50 (OVCAR-4 ovarian): 11.2 µM | TGI (OVCAR-4 ovarian): > 100 µM | GI50 (SNB-19 CNS): 2.64 µM | TGI (SNB-19 CNS): 23.5 µM | GI50 (OVCAR-8 ovarian): 3.65 µM | TGI (OVCAR-8 ovarian): 44.4 µM | GI50 (OVCAR-5 ovarian): 15.6 µM | TGI (OVCAR-5 ovarian): 31.6 µM | GI50 (A549 NSCLC): 5.22 µM | TGI (A549 NSCLC): 37.4 µM | GI50 (HL-60(TB) leukemia): 0.993 µM | TGI (HL-60(TB) leukemia): 11 µM | GI50 (NCI-H226 lung): 1.21 µM | TGI (NCI-H226 lung): 4.91 µM | GI50 (UACC-62 melanoma): 1.27 µM | TGI (UACC-62 melanoma): 4.79 µM | GI50 (KM12 colon): 2.11 µM | TGI (KM12 colon): 11.3 µM | GI50 (IGROV1 ovarian): 3.93 µM | TGI (IGROV1 ovarian): 40 µM | GI50 (COLO 205 colon): 3.38 µM | TGI (COLO 205 colon): 20.8 µM | GI50 (MOLT-4 leukemia): 1.35 µM | TGI (MOLT-4 leukemia): > 100 µM | GI50 (A498 renal): 5 µM | TGI (A498 renal): 21.8 µM | GI50 (SK-OV-3 ovarian): 3.7 µM | TGI (SK-OV-3 ovarian): 19.9 µM | GI50 (UACC-257 melanoma): 8.18 µM | TGI (UACC-257 melanoma): 25 µM | GI50 (CAKI-1 renal): 1.74 µM | TGI (CAKI-1 renal): 10.1 µM | GI50 (NCI-H522 lung): 3.18 µM | TGI (NCI-H522 lung): 21.7 µM | GI50 (LOX IMVI melanoma): 1.47 µM | TGI (LOX IMVI melanoma): 6.34 µM | GI50 (T-47D breast): 10.7 µM | TGI (T-47D breast): 54 µM | GI50 (K-562 leukemia): 1.36 µM | TGI (K-562 leukemia): 4.52 µM | GI50 (CCRF-CEM leukemia): 2.98 µM | TGI (CCRF-CEM leukemia): > 100 µM | GI50 (DU-145 prostate): 5.48 µM | TGI (DU-145 prostate): 24.1 µM
